Among the data in patent US4156724A, “N-acylamino-alpha-arylacetamido cephalosporins and antibacterial compositions and methods containing them” (Sumitomo Chemical Company, Limited, priority 1974, dated 1979) are MIC values, retold here.

Common to all, as to type: cell-based
For test [1], the system named is Pseudomonas aeruginosa 104. In words: Minimum Inhibitory Concentration, Pseudomonas aeruginosa 104. As to conditions: Pseudomonas aeruginosa 104; read-out: Minimum Inhibitory Concentration. Here is the method: (§1) anti-microbial activity tests were carried out on the compounds obtained in the Examples.
For test [2], the system named is Proteus vulgaris HX 19. The experiment in a line: Minimum Inhibitory Concentration, Proteus vulgaris HX 19. As to conditions: HX19; Proteus vulgaris HX 19; read-out: Minimum Inhibitory Concentration. Here is the method: as §1
For test [3], the system named is Klebsiella pneumoniae 602. The experiment in a line: Minimum Inhibitory Concentration, Klebsiella pneumoniae 602. As to conditions: Klebsiella pneumoniae, 602, Klebsiella pneumoniae 602; read-out: Minimum Inhibitory Concentration. Here is the method: as §1
Test [4] deals with Escherichia coli NIHJ. The experiment in a line: Minimum Inhibitory Concentration, Escherichia coli NIHJ. As to conditions: Escherichia coli NIHJ; read-out: Minimum Inhibitory Concentration. Here is the method: as §1
For test [5], the system named is Enterobacter aerogeneus No. 75. In words: Minimum Inhibitory Concentration, Enterobacter aerogeneus No. 75. As to conditions: Enterobacter aerogeneus No. 75; read-out: Minimum Inhibitory Concentration. Here is the method:
as §1

Test [6] deals with Serratia No. 72. In words: Minimum Inhibitory Concentration, Serratia No. 72. Here is the method:
as §1

The test system of test [7] is Staphylococcus aureus 209 P. The experiment in a line: Minimum Inhibitory Concentration, Staphylococcus aureus 209 P. The note with it: Staphylococcus aureus 209 P; read-out: Minimum Inhibitory Concentration. Here is the method:
as §1

Test [8] has as its system Staphylococcus aureus FS 289. In words: Minimum Inhibitory Concentration, Staphylococcus aureus FS 289. As to conditions: FS289; Staphylococcus aureus FS 289, strain resistant to penicillin; read-out: Minimum Inhibitory Concentration. Here is the method: as §1
*Staphylococcus aureus FS 289: strain resistant to penicillin

Molecules are shown by their SMILES. Converted amounts (≈) assume the structure as drawn.

Turning to `O=C(O)C1=C(CSc2nncs2)CSC2C(NC(=O)C(NC(=O)c3cncnc3O)c3ccc(CO)cc3)C(=O)N12` (centres unmarked) [Example 95], the MIC was determined as 25 µg/mL (≈ 40.6 µM) in test [1]; 0.78 µg/mL (≈ 1.27 µM) in test [2]; 12.5 µg/mL (≈ 20.3 µM) in test [3]; 25 µg/mL (≈ 40.6 µM) in test [4]; 25 µg/mL (≈ 40.6 µM) in test [5]; 50 µg/mL (≈ 81.2 µM) in test [6]. The MIC in test [7] turned out to be 0.78 µg/mL (≈ 1.27 µM); in test [8], 12.5 µg/mL (≈ 20.3 µM).
Regarding `Cc1nnc(SCC2=C(C(=O)O)N3C(=O)C(NC(=O)C(NC(=O)c4cnc5cccnc5c4O)c4ccc(CO)cc4)C3SC2)s1` (centres unmarked) [Example 96], the MIC in test [1] came to 6.25 µg/mL (≈ 9.19 µM); in test [2], 0.2 µg/mL (≈ 0.294 µM); in test [3] it was 1.56 µg/mL (≈ 2.29 µM); in test [4], 3.13 µg/mL (≈ 4.6 µM); in test [5], 6.25 µg/mL (≈ 9.19 µM); in test [6], 12.5 µg/mL (≈ 18.4 µM). Also, the values for the MIC in test [7] and in test [8] were 1.56 µg/mL (≈ 2.29 µM) and 6.25 µg/mL (≈ 9.19 µM), respectively.
Take `Cn1nnnc1SCC1=C(C(=O)O)N2C(=O)C(NC(=O)C(NC(=O)c3cnc4cccnc4c3O)c3ccc(CO)cc3)C2SC1` (centres unmarked) [Example 97]: the MIC in test [1] was found to be 6.25 µg/mL (≈ 9.42 µM); in test [2], 0.2 µg/mL (≈ 0.301 µM); in test [3], 1.56 µg/mL (≈ 2.35 µM); in test [4], 1.56 µg/mL (≈ 2.35 µM); in test [5], 6.25 µg/mL (≈ 9.42 µM); in test [6] it was 25 µg/mL (≈ 37.7 µM). Besides, the MIC in test [7] amounted to 1.56 µg/mL (≈ 2.35 µM); in test [8] it was 6.25 µg/mL (≈ 9.42 µM).
Consider `O=C(O)C1=C(CSc2cnn[nH]2)CSC2C(NC(=O)C(NC(=O)c3cnc4cccnc4c3O)c3ccc(CO)cc3)C(=O)N12` (centres unmarked) [Example 98], for which the MIC came out at 6.25 µg/mL (≈ 9.63 µM) in test [1]; 0.2 µg/mL (≈ 0.308 µM) in test [2]; 1.56 µg/mL (≈ 2.4 µM) in test [3]; 1.56 µg/mL (≈ 2.4 µM) in test [4]; 6.25 µg/mL (≈ 9.63 µM) in test [5]; 25 µg/mL (≈ 38.5 µM) in test [6]. Further, the MIC in test [7] came to 1.56 µg/mL (≈ 2.4 µM); in test [8], 6.25 µg/mL (≈ 9.63 µM).
On to `CC(=O)OCC1=C(C(=O)O)N2C(=O)C(NC(=O)C(NC(=O)c3cnc4nc(C)ccc4c3O)c3ccc(CO)cc3)C2SC1` (centres unmarked) [Example 99], for which the MIC worked out at 12.5 µg/mL (≈ 20.1 µM) in test [1]; 0.78 µg/mL (≈ 1.25 µM) in test [2]; 6.25 µg/mL (≈ 10.1 µM) in test [3]; 6.25 µg/mL (≈ 10.1 µM) in test [4]; 12.5 µg/mL (≈ 20.1 µM) in test [5]; 50 µg/mL (≈ 80.4 µM) in test [6]. Moreover, the MIC came to 1.56 µg/mL (≈ 2.51 µM) in test [7] and 6.25 µg/mL (≈ 10.1 µM) in test [8].
As for `Cc1ccc2c(O)c(C(=O)NC(C(=O)NC3C(=O)N4C(C(=O)O)=C(CSc5nnc(C)s5)CSC34)c3ccc(CO)cc3)cnc2n1` (centres unmarked) [Example 100], the MIC in test [1] was found to be 6.25 µg/mL (≈ 9.01 µM); in test [2], 0.39 µg/mL (≈ 0.562 µM); in test [3], 6.25 µg/mL (≈ 9.01 µM); in test [4] it was 3.13 µg/mL (≈ 4.51 µM); in test [5], 6.25 µg/mL (≈ 9.01 µM); in test [6] it was 50 µg/mL (≈ 72.1 µM). In addition, the MIC in test [7] came to 1.56 µg/mL (≈ 2.25 µM); in test [8] it was 6.25 µg/mL (≈ 9.01 µM).
In the case of `O=C(O)C1=C(CSc2ccc(O)nn2)CSC2C(NC(=O)C(NC(=O)c3cnc4cccnc4c3O)c3ccc(CO)cc3)C(=O)N12` (centres unmarked) [Example 102], the MIC in test [1] came to 6.25 µg/mL (≈ 9.25 µM); in test [2], 0.39 µg/mL (≈ 0.577 µM); in test [3], 3.13 µg/mL (≈ 4.63 µM); in test [4], 3.13 µg/mL (≈ 4.63 µM); in test [5], 12.5 µg/mL (≈ 18.5 µM); in test [6] it was 25 µg/mL (≈ 37 µM). Moreover, the values for the MIC in test [7] and in test [8] were 1.56 µg/mL (≈ 2.31 µM) and 6.25 µg/mL (≈ 9.25 µM), respectively.
Consider `O=C(O)C1=C(CSc2nnc(CO)s2)CSC2C(NC(=O)C(NC(=O)c3cnc4cccnc4c3O)c3ccc(CO)cc3)C(=O)N12` (centres unmarked) [Example 103], for which the MIC in test [1] was determined as 6.25 µg/mL (≈ 8.98 µM); in test [2], 0.2 µg/mL (≈ 0.287 µM); in test [3], 3.13 µg/mL (≈ 4.5 µM); in test [4], 3.13 µg/mL (≈ 4.5 µM); in test [5], 12.5 µg/mL (≈ 18 µM); in test [6] it was 12.5 µg/mL (≈ 18 µM). In addition, the values for the MIC in test [7] and in test [8] were 1.56 µg/mL (≈ 2.24 µM) and 6.25 µg/mL (≈ 8.98 µM), respectively.
On to `CSc1cnc2c(O)c(C(=O)NC(C(=O)NC3C(=O)N4C(C(=O)O)=C(CSc5nnc(C)s5)CSC34)c3ccc(CO)cc3)cnc2n1` (centres unmarked) [Example 104], for which the MIC in test [1] amounted to 6.25 µg/mL (≈ 8.6 µM); in test [2], 0.39 µg/mL (≈ 0.537 µM); in test [3], 3.13 µg/mL (≈ 4.31 µM); in test [4], 6.25 µg/mL (≈ 8.6 µM); in test [5], 12.5 µg/mL (≈ 17.2 µM); in test [6], 12.5 µg/mL (≈ 17.2 µM). For the same compound, the MIC in test [7] was found to be 1.56 µg/mL (≈ 2.15 µM); in test [8] it was 6.25 µg/mL (≈ 8.6 µM).
As to `Cc1nc2ncc(C(=O)NC(C(=O)NC3C(=O)N4C(C(=O)O)=C(CSc5nnnn5C)CSC34)c3ccc(CO)cc3)c(O)c2nc1C` (centres unmarked) [Example 105], the MIC is 6.25 µg/mL (≈ 9.02 µM) in test [1]; 0.2 µg/mL (≈ 0.289 µM) in test [2]; 3.13 µg/mL (≈ 4.52 µM) in test [3]; 6.25 µg/mL (≈ 9.02 µM) in test [4]; 12.5 µg/mL (≈ 18 µM) in test [5]; 12.5 µg/mL (≈ 18 µM) in test [6]. For the same compound, the MIC in test [7] is 0.78 µg/mL (≈ 1.13 µM); in test [8] it was 6.25 µg/mL (≈ 9.02 µM).
